In data set [1] the test system is formalin-induced tonic flinch responses. The note with it: rat, in vivo.
The test system of data set [2] is heart rate and arterial blood pressure. The note with it: rat, in vivo.
The subject of data set [3] is thermal (heat) response latencies. Particulars: rat, in vivo.
A further data set concerns GI transit. The note with it: rat, in vivo.
Data set [4] has as its system formalin-induced tonic flinch responses. The note with it: rat, in vivo; cited from earlier work.

The text below walks through data of US10307463B2 (priority 2003, dated 2019).

Molecules are shown by their SMILES.

Regarding `NCC(CC(=O)O)c1ccc(Cl)cc1` (stereo not drawn) [baclofen, γ-amino-β-(p-chlorophenyl) butyric acid], in data set [1], the “formalin-induced tonic (persistent) pain behavior” value (“formalin-induced tonic” for short) is “dose-dependent reductions”.
Consider `CCCCN1CCCCC1C(=O)Nc1c(C)cccc1C` (stereo not drawn) [bupivacaine], for which, in data set [1], the “formalin-induced tonic” value is given as “did not significantly inhibit” and the hindpaw paralysis entry is “immediate but transient hindpaw paralysis”.
For `Clc1cccc(Cl)c1N=C1NCCN1` [clonidine, 2,6-dichloro-N-2-imidazolidinylidenebenzenamine], the “formalin-induced tonic” value in data set [1] is on record as “dose-dependently suppressed”. In addition, the heart rate result in data set [2] is reported as “dose-dependent bradycardia”.
On to `CN1CC[C@]23c4c5ccc(O)c4OC2C(O)C=C[C@H]3[C@H]1C5` (stereo partly drawn) [morphine, 7,8-didehydro-4,5-epoxy-17-methylmorphinan-3,6-diol], for which, in data set [3], the “development of tolerance to analgesic effects” value is given as “declined in magnitude” and the “thermal (heat) response latencies” value was “moderately antinociceptive”. Moreover, the GI transit entry with GI transit is reported as “dose-dependent inhibition”. The “tonic formalin-induced flinching behavior after six days infusion” value in data set [4] was “significantly reduced”.
